Reference: US8263613B2, “Salts, prodrugs and polymorphs of fab I inhibitors” (Affinium Pharmaceuticals, Inc., priority 2007, dated 2012)
Converted amounts (≈) assume the structure as drawn. Like-named read-outs stand apart in the source and are kept apart here.

Assays:
[1] = Pharmacokinetic study in male rats, single oral dose in 80% PEG400; conditions: rat, in vivo
[2] = system: Staphylococcus aureus ATCC 29213; assay: Mouse thigh abscess infection model; assay type: in vivo; conditions: for ED50: Staphylococcus aureus, ATCC29213; for ED50 / ED80 / Static dose: mice, oral, Inhibitory Effect Sigmoid Emax Model fit; for Average Change logCFU/thigh: neutropenic mice, 6 hours post dose, vs time 0 controls
Method: Compound A (free base) unmilled, and the tosylate salt of Compound A milled were tested in the same mouse thigh abscess model following single oral doses in 0.5% carboxymethyl cellulose. Mice (6 per dosing group) were rendered neutropentic, and the thigh of each mouse was injected with 1×10^5 colony forming units (CFU) of Staphylococcus aureus ATCC 29213. Two hours post infection, mice were dosed with the drug orally, and at 6 hours post dose, bacterial viable counts where determined from the thighs of all the mice. Efficacy was calculated as the average change in CFU/thigh compared to time 0 (time of dosing) controls.

[3] = Solubility in cyclodextrins; assay type: physicochemical; conditions: for solubility: aqueous with cosolvent or surfactant or cyclodextrin, thermodynamic from solid
[4] = Oral pharmacokinetic study in male rats (oral gavage); assay type: in vivo, rat; conditions: for AUC(0-t) / Cmax: male, CD, rat, po
Method: Compound A (free base) and B (toslyate monohydrate salt of compound A) was administered to male rats, strain CD®, via oral gavage using 1% Poloxamer 407 or 0.5% carboxymethyl cellulose (CMC) as the vehicle (Table 1). All doses were calculated as free base equivalents.
For each dosing group blood was collected from 3 animals at each of the following time points: 0, 0.5, 1, 2, 4, 6, 8, 10, 12, 16, 24, and 48 hours post dose. Plasma was prepared using standard techniques with sodium heparin as anti-coagulant. The Compound A and B plasma concentrations were determined using a GLP-validated LC/MS/MS bioanalytical method. Pharmacokinetic analyses were performed using PK Solutions 2.0™ or WinNonLin 5.1.

[5] = male, po, 30 mg/kg, single oral dose 30 mg/kg in 80% PEG400, particle state Milled
[6] = single oral dose 0.3 mg/kg in 0.5% carboxymethyl cellulose
[7] = single oral dose 1 mg/kg in 0.5% carboxymethyl cellulose
[8] = single oral dose 3 mg/kg in 0.5% carboxymethyl cellulose
[9] = single oral dose 10 mg/kg in 0.5% carboxymethyl cellulose
[10] = single oral dose 30 mg/kg in 0.5% carboxymethyl cellulose
[11] = single oral dose 30 mg/kg in 80% PEG400, particle state Unmilled
[12] = male, po, 30 mg/kg, single oral dose 30 mg/kg in 80% PEG400, particle state Unmilled
[13] = plasma, 10 mg/kg, 10 mg/kg (free base equivalents), 0.5% CMC
[14] = plasma, 10 mg/kg, 10 mg/kg (free base equivalents), 1% Poloxamer 407
[15] = plasma, 30 mg/kg, 30 mg/kg (free base equivalents), 0.5% CMC
[16] = plasma, 75 mg/kg, 75 mg/kg (free base equivalents), 0.5% CMC
[17] = in vivo, 10 mg/kg, 10 mg/kg (free base equivalents), 0.5% CMC
[18] = in vivo, 10 mg/kg, 10 mg/kg (free base equivalents), 1% Poloxamer 407
[19] = in vivo, 30 mg/kg, 30 mg/kg (free base equivalents), 0.5% CMC
[20] = in vivo, 75 mg/kg, 75 mg/kg (free base equivalents), 0.5% CMC

Question: Which results are given for Cc1c(CN(C)C(=O)/C=C/c2cnc3c(c2)CCC(=O)N3)oc2ccccc12.Cc1ccc(S(=O)(=O)O)cc1 [Tosylate, (E)-N-methyl-N-((3-methylbenzofuran-2-yl)methyl)-3-(7-oxo-5,6,7,8-tetrahydro-1,8-naphthyridin-3-yl)acrylamide p-toluene sulfonate]?
Answer: AUC(0-inf) [1, 5]: 9510 ng·h/mL; AUC(0-t) [1, 5]: 9460 ng·h/mL; Cmax [1, 5]: 1610 ng/mL; half-life [1, 5]: 3.5 h; ED50 [2]: 1.3 mg/kg; ED80 [2]: 3.4 mg/kg; Static dose [2]: 2.4 mg/kg; Average Change logCFU/thigh [2, 6]: 1.31 logCFU/thigh; Average Change logCFU/thigh [2, 7]: 1.08 logCFU/thigh; Average Change logCFU/thigh [2, 8]: −0.42 logCFU/thigh; Average Change logCFU/thigh [2, 9]: −0.62 logCFU/thigh; Average Change logCFU/thigh [2, 10]: −0.77 logCFU/thigh

Question: Which results are given for CS(=O)(=O)O.Cc1c(CN(C)C(=O)/C=C/c2cnc3c(c2)CCC(=O)N3)oc2ccccc12 [Mesylate, (E)-N-methyl-N-((3-methylbenzofuran-2-yl)methyl)-3-(7-oxo-5,6,7,8-tetrahydro-1,8-naphthyridin-3-yl)acrylamide methane sulfonate]?
Answer: AUC(0-inf) [1, 5]: 6040 ng·h/mL; AUC(0-t) [1, 5]: 5770 ng·h/mL; Cmax [1, 5]: 884 ng/mL; half-life [1, 5]: 5 h

Question: Which results are given for Cc1c(CN(C)C(=O)/C=C/c2cnc3c(c2)CCC(=O)N3)oc2ccccc12.O=S(=O)(O)O [Sulfate, (E)-N-methyl-N-((3-methylbenzofuran-2-yl)methyl)-3-(7-oxo-5,6,7,8-tetrahydro-1,8-naphthyridin-3-yl)acrylamide sulfate]?
Answer: AUC(0-inf) [1, 11]: 9970 ng·h/mL; AUC(0-t) [1, 11]: 9480 ng·h/mL; Cmax [1, 11]: 1940 ng/mL; half-life [1, 11]: 5.7 h

Question: What does the source list for Cc1c(CN(C)C(=O)/C=C/c2cnc3c(c2)CCC(=O)N3)oc2ccccc12 [Free base, (E)-N-methyl-N-((3-methylbenzofuran-2-yl)methyl)-3-(7-oxo-5,6,7,8-tetrahydro-1,8-naphthyridin-3-yl)acrylamide]?
Answer: AUC(0-inf) [1, 5]: 6570 ng·h/mL; AUC(0-t) [1, 5]: 6370 ng·h/mL; Cmax [1, 5]: 1970 ng/mL; half-life [1, 5]: 5.5 h; AUC(0-inf) [1, 12]: 1260 ng·h/mL; AUC(0-t) [1, 12]: 1160 ng·h/mL; Cmax [1, 12]: 421 ng/mL; half-life [1, 12]: 2 h; solubility ([3]; 10% hydroxypropyl beta-cyclodextrin, cyclodextrin concentration 10%, shake-flask technique, read-out: Solubility in Hydroxypropyl Beta-Cyclodextrin): 20 µg/mL (≈ 53.3 µM); solubility ([3]; 10% hydroxypropyl beta-cyclodextrin, cyclodextrin concentration 10%, evaporating an ethanol/water/DMA blend of cyclodextrin and API and reconstituting with water, read-out: Solubility in Hydroxypropyl Beta-Cyclodextrin): 9 µg/mL (≈ 24 µM); solubility ([3]; 10% sulfobutyl ether beta-cyclodextrin, cyclodextrin concentration 10%, read-out: Solubility in Sulfobutyl Ether Beta-Cyclodextrin): 7 µg/mL (≈ 18.6 µM); ED50 [2]: 4 mg/kg; ED80 [2]: 8.8 mg/kg; Static dose [2]: 10.5 mg/kg; Average Change logCFU/thigh [2, 6]: 1.6 logCFU/thigh; Average Change logCFU/thigh [2, 7]: 1.35 logCFU/thigh; Average Change logCFU/thigh [2, 8]: 0.3 logCFU/thigh; Average Change logCFU/thigh [2, 9]: 0.36 logCFU/thigh; Average Change logCFU/thigh [2, 10]: −0.29 logCFU/thigh; AUC(0-t) [4, 13]: 980 ng·h/mL; Cmax [4, 13]: 163 ng/mL; AUC(0-t) [4, 14]: 883 ng·h/mL; Cmax [4, 14]: 157 ng/mL; AUC(0-t) [4, 15]: 1620 ng·h/mL; Cmax [4, 15]: 176 ng/mL; AUC(0-t) [4, 16]: 2370 ng·h/mL; Cmax [4, 16]: 246 ng/mL

Question: Which results are given for Cc1c(CN(C)C(=O)/C=C/c2cnc3c(c2)CCC(=O)N3)oc2ccccc12.Cc1ccc(S(=O)(=O)O)cc1.O [Tosylate monohydrate milled, (E)-N-methyl-N-((3-methylbenzofuran-2-yl)methyl)-3-(7-oxo-5,6,7,8-tetrahydro-1,8-naphthyridin-3-yl)acrylamide Tosylate Monohydrate]?
Answer: solubility ([3]; cyclodextrin concentration 10%, read-out: Solubility in Hydroxypropyl Beta-Cyclodextrin): 26 µg/mL; solubility ([3]; cyclodextrin concentration 10%, read-out: Solubility in Sulfobutyl Ether Beta-Cyclodextrin): 67 µg/mL; solubility ([3]; cyclodextrin concentration 40%, read-out: Solubility in Hydroxypropyl Beta-Cyclodextrin): 370 µg/mL; solubility ([3]; cyclodextrin concentration 40%, read-out: Solubility in Sulfobutyl Ether Beta-Cyclodextrin): 4000 µg/mL; Solubility relative to the free base milled form ([3]; sulfobutyl ether beta-cyclodextrin, cyclodextrin concentration 10%): approximately 10 fold; Ratio of tosylate monohyrate/free base AUClast ([4]; 10 mg/kg, 0.5% CMC): 2.1; Ratio of tosylate monohyrate/free base Cmax ([4]; 10 mg/kg, 0.5% CMC): 2.1; Ratio of tosylate monohyrate/free base AUClast ([4]; 10 mg/kg, 1% Poloxamer 407): 3.0; Ratio of tosylate monohyrate/free base Cmax ([4]; 10 mg/kg, 1% Poloxamer 407): 2.2; Ratio of tosylate monohyrate/free base AUClast ([4]; 30 mg/kg, 0.5% CMC): 2.3; Ratio of tosylate monohyrate/free base Cmax ([4]; 30 mg/kg, 0.5% CMC): 2.5; Ratio of tosylate monohyrate/free base AUClast ([4]; 75 mg/kg, 0.5% CMC): 1.8; Ratio of tosylate monohyrate/free base Cmax ([4]; 75 mg/kg, 0.5% CMC): 2.4; AUC(0-t) [4, 17]: 2040 ng·h/mL; Cmax [4, 17]: 347 ng/mL; AUC(0-t) [4, 18]: 2660 ng·h/mL; Cmax [4, 18]: 348 ng/mL; AUC(0-t) [4, 19]: 3680 ng·h/mL; Cmax [4, 19]: 434 ng/mL; AUC(0-t) [4, 20]: 4260 ng·h/mL; Cmax [4, 20]: 595 ng/mL
